According to PMC7377239, “Cardiovascular Effects of Polychlorinated Biphenyls and Their Major Metabolites” (Environmental Health Perspectives, 2020):
Structures can show the parent of a compound that is named as a salt. Where two headings read alike, the source gives them in different places.

Assays:
[1] = tested on: iCell endothelial cells (human iPSC-derived ECs); test: Tube formation (tubulogenesis) assay in iCell endothelial cells, 18 h; type: cell-based; conditions: Homo sapiens, Endothelial cell, 18 hr; for activity at 0.1 µM: 0.10 µM
Outline: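 iCell ECs (passages 1–5) seeded 7,500 cells/well on reduced-growth-factor Geltrex in starvation medium, exposed overnight at 37°C to compounds in triplicate concentration–response (0.5% DMSO vehicle). Calcein AM staining, 4× imaging, angiogenesis image analysis; readouts normalized to vehicle, four-parameter logistic fit, POD at 1 SD of vehicle; 100 μM assigned NOAEL if no response.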

[2] = tested on: HUVECs; test: High-content imaging cytotoxicity in HUVECs, 24 h; type: cell-based, human; conditions: Homo sapiens, HUVEC, 24 h, HUVEC; for viability at 0.01 µM / activity at 0.01 µM / viability at 0.1 µM / activity at 0.1 µM / viability at 1 µM / activity at 1 µM / viability at 10 µM / activity at 10 µM / viability at 100 µM / activity at 100 µM: 0.00 µM = 100.00; for viability at 0.1 µM / activity at 0.1 µM: 0.10 µM
Outline: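 HUVECs (passages 1–5) were plated at 750 cells/well without fibronectin, grown to a monolayer (3–5 d) and exposed to compounds for 24 h at 37°C, 5% CO2. Hoechst 33342, MitoTracker Orange and calcein AM staining was imaged at 10×; readouts were normalized to 0.5% DMSO vehicle and fit to a four-parameter logistic model.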

[3] = endothelial cells (endo), tube formation mtl, read-out: POD endo.mtl.18hr
[4] = endothelial cells (endo), tube formation tlps, read-out: POD endo.tlps.18hr
[5] = endothelial cells (endo), tube formation tta, read-out: POD endo.tta.18hr
[6] = endothelial cells (endo), tube formation ttl, read-out: POD endo.ttl.18hr
[7] = cyto, 24 hr, read-out: POD huvec.cyto.24hr
[8] = mito, 24 hr, read-out: POD huvec.mito.24hr
[9] = mitoint, 24 hr, read-out: POD huvec.mitoint.24hr
[10] = nma, 24 hr, read-out: POD huvec.nma.24hr
[11] = tc, 24 hr, read-out: POD huvec.tc.24hr
[12] = iPSC-EC tube formation, 0.00 µM control = 100.00, read-out: endo.mtl.18hr
[13] = iPSC-EC tube formation, 0.00 µM control = 100.00, read-out: endo.tlps.18hr
[14] = iPSC-EC tube formation, 0.00 µM control = 100.00, read-out: endo.tta.18hr
[15] = iPSC-EC tube formation, 0.00 µM control = 100.00, read-out: endo.ttl.18hr
[16] = HUVECs, 24 hr, read-out: huvec.cyto.24hr
[17] = HUVECs, 24 hr, read-out: huvec.mito.24hr
[18] = HUVECs, 24 hr, read-out: huvec.mitoint.24hr
[19] = HUVECs, 24 hr, read-out: huvec.nma.24hr
[20] = HUVECs, 24 hrs, read-out: huvec.tc.24hrs

Work on `O=S(=O)(O)Oc1cccc(-c2ccc(Cl)cc2)c1` [3'-PCB 3 sulfate] yielded a minimal effective concentration [1, 3] of 0.58 µM, a minimal effective concentration [1, 4] of 38.6 µM and a minimal effective concentration [1, 5] of 11.6 µM. For the same compound, the minimal effective concentration [1, 6] was 8.75 µM, the minimal effective concentration [2, 7] was 100 µM and the minimal effective concentration [2, 8] was 100 µM. The minimal effective concentration [2, 9] was 100 µM, the minimal effective concentration [2, 10] was 100 µM and the minimal effective concentration [2, 11] was 100 µM.
Compound `Oc1ccc(O)c(-c2ccc(Cl)cc2)c1` [2',5'-DiOH PCB3] has an activity at 0.01 µM [1, 12] of 99.4%, an activity at 0.01 µM [1, 13] of 100% and an activity at 0.01 µM [1, 14] of 127%. It also gave an activity at 0.01 µM [1, 15] of 115%, an activity at 0.1 µM [1, 12] of 104% and an activity at 0.1 µM [1, 13] of 103%. The activity at 0.1 µM [1, 14] was 104%, the activity at 0.1 µM [1, 15] was 98.5% and the activity at 1 µM [1, 12] was 62%. For the same compound, the activity at 1 µM [1, 13] was 66.5%, the activity at 1 µM [1, 14] was 60.7% and the activity at 1 µM [1, 15] was 55%. For the same compound, the activity at 10 µM [1, 12] was 61.7%, the activity at 10 µM [1, 13] was 30.6% and the activity at 10 µM [1, 14] was 64.9%. For the same compound, the activity at 10 µM [1, 15] was 63%, the activity at 100 µM [1, 12] was 58.4% and the activity at 100 µM [1, 13] was 7.76%. For the same compound, the activity at 100 µM [1, 14] was 0.41%, the activity at 100 µM [1, 15] was 0.74% and the minimal effective concentration ([1]; iPSC-EC tube formation, top concentration 100.00 µM, read-out: endo.mtl.18hr POD) was 0.47 µM. It also gave a minimal effective concentration ([1]; iPSC-EC tube formation, top concentration 100.00 µM, read-out: endo.tlps.18hr POD) of 0.53 µM, a minimal effective concentration ([1]; iPSC-EC tube formation, top concentration 100.00 µM, read-out: endo.tta.18hr POD) of 1.63 µM and a minimal effective concentration ([1]; iPSC-EC tube formation, top concentration 100.00 µM, read-out: endo.ttl.18hr POD) of 1.51 µM. For the same compound, the viability at 0.01 µM [2, 16] was 84.3%, the activity at 0.01 µM [2, 17] was 83.2% and the activity at 0.01 µM [2, 18] was 99.1%. For the same compound, the activity at 0.01 µM [2, 19] was 101%, the viability at 0.1 µM [2, 16] was 103% and the activity at 0.1 µM [2, 17] was 103%. It also gave an activity at 0.1 µM [2, 18] of 112%, an activity at 0.1 µM [2, 19] of 97.2% and a viability at 1 µM [2, 16] of 75%. It also gave an activity at 1 µM [2, 17] of 73.6%, an activity at 1 µM [2, 18] of 104% and an activity at 1 µM [2, 19] of 101%. For the same compound, the viability at 10 µM [2, 16] was 57.5%, the activity at 10 µM [2, 17] was 27.6% and the activity at 10 µM [2, 18] was 10.3%. The activity at 10 µM [2, 19] was 96.2%, the viability at 100 µM [2, 16] was 2.82% and the activity at 100 µM [2, 17] was 0%. For the same compound, the activity at 100 µM [2, 18] was 0%, the activity at 100 µM [2, 19] was 83.3% and the minimal effective concentration ([2]; HUVECs, 24 hr, top concentration 100.00 µM, read-out: huvec.cyto.24hr POD) was 0.12 µM. The minimal effective concentration ([2]; HUVECs, 24 hr, top concentration 100.00 µM, read-out: huvec.mito.24hr POD) was 0.13 µM, the minimal effective concentration ([2]; HUVECs, 24 hr, top concentration 100.00 µM, read-out: huvec.mitoint.24hr POD) was 3.51 µM and the minimal effective concentration ([2]; HUVECs, 24 hr, top concentration 100.00 µM, read-out: huvec.nma.24hr POD) was 8.87 µM. The viability at 0.01 µM [2, 20] was 84.5%, the viability at 0.1 µM [2, 20] was 103% and the viability at 1 µM [2, 20] was 75%. The viability at 10 µM [2, 20] was 57.7%, the viability at 100 µM [2, 20] was 89.6% and the minimal effective concentration ([2]; HUVECs, 24 hrs, top concentration 100.00 µM, read-out: huvec.tc.24hrs POD) was 0.12 µM.
`Oc1cc(Cl)c(-c2cc(Cl)ccc2Cl)cc1Cl` [4-OH-PCB 52] gave a minimal effective concentration [1, 3] of 9.52 µM, a minimal effective concentration [1, 4] of 8.32 µM and a minimal effective concentration [1, 5] of 15 µM. The minimal effective concentration [1, 6] was 15.2 µM, the minimal effective concentration [2, 7] was 1 µM and the minimal effective concentration [2, 8] was 1.1 µM. It also gave a minimal effective concentration [2, 9] of 2.32 µM, a minimal effective concentration [2, 10] of 100 µM and a minimal effective concentration [2, 11] of 1 µM.
